According to patent US20090181931A1, “ANTIVIRAL ACTIVITY OF CIDOFOVIR AGAINST ONCOLYTIC VIRUSES” (priority 2008, published 2009):
“And” between values parts separate entries of the source, which are not always exact repeats. Equal entries are not always repeated.

Legend:
H1299 cells = experiment: XTT cell viability assay, CDV alone, H1299 cells; assay type: cell-based; conditions: for Relative cell viability Ave. / Relative cell viability: H1299, no virus, 7 days; for Relative cell viability: single wells, dihydrate
Method: (§1) Cells frozen in liquid nitrogen were thawed in water bath at 37° C., seeded at T25 flask, and cultured at 70-90% sub-confluent monolayer. Cells were detached with trypsin, and prepared suspension at a concentration of 1.0×10^4 cells/ml.
(§2) Cells were seeded in 96 well-plate (100 μL/well, 1000 cells/well), then cultured with 5% CO2 at 37° C.
(§3) Viruses were diluted at MOI of 1 (OBP-301, OBP-202) in H1299 and 5 in A549 (PFU/cell). Medium in each well was removed, 150 μL of diluted virus solution was added to each well of the plate. 2 hours later, medium was aspirated and replaced with fresh medium containing 2% FCS and serially diluted CDV. Cells were incubated with 5% CO2 at 37° C. for 7 days after infection.
as §3, with “0.1 (OBP-401) or 10 (ONYX-015)” for “1 (OBP-301, OBP-202)”, “H1299.” for “H1299 and 5 in A549 (PFU/cell).”, “50” for “150”
(§4) 100 μL of PBS, 50 μL of XTT labeling reagent, and 1 μL of ion coupling reagent per well of plate were mixed.
(§5) Medium in each well of plate was removed, and 150 μL of mixture prepared above was added to each well. Plate was incubated with 5% CO2 at 37° C. for 4 hours, and then calculated absorbance at 450 nm and 690 nm. Protection was determined by the formula below: […]

[1] = XTT cell viability assay, CDV alone, H1299 cells; assay type: cell-based; conditions: human; H1299 cells, XTT; read-out: CC50, CDV concentration that reduce the relative cell viability to 50%
Method: as §1, §2, §3
as §3, with “0.1 (OBP-401) or 10 (ONYX-015)” for “1 (OBP-301, OBP-202)”, “H1299.” for “H1299 and 5 in A549 (PFU/cell).”, “50” for “150”
as §4, §5

Nc1ccn(C[C@@H](CO)OCP(=O)(O)O)c(=O)n1.O.O [CDV, 1-[(S)-3-hydroxy-2-(phosphonomethoxy)propyl]cytosine dihydrate]
Relative cell viability Ave. (H1299 cells; CDV 0.01 μM, Table 4A): 1.014
Relative cell viability Ave. (H1299 cells; CDV 0.01 μM, Table 4B): 0.992
Relative cell viability (H1299 cells; CDV 0.01 μM, Table 4A): 0.978 and 1.068 and 1.002 and 1.009
Relative cell viability (H1299 cells; CDV 0.01 μM, Table 4B): 0.970 and 1.010 and 0.999 and 0.990
Relative cell viability Ave. (H1299 cells; CDV 0.06 μM, Table 4A): 0.996
Relative cell viability Ave. (H1299 cells; CDV 0.06 μM, Table 4B): 0.985
Relative cell viability (H1299 cells; CDV 0.06 μM, Table 4A): 0.945 and 1.070 and 0.997 and 0.972
Relative cell viability (H1299 cells; CDV 0.06 μM, Table 4B): 0.950 and 1.019 and 0.990 and 0.981
Relative cell viability Ave. (H1299 cells; CDV 0.32 μM, Table 3A): 1.074
Relative cell viability Ave. (H1299 cells; CDV 0.32 μM, Table 4A): 1.020
Relative cell viability (H1299 cells; CDV 0.32 μM, Table 3A): 0.963 and 1.073 and 1.171 and 1.087
Relative cell viability (H1299 cells; CDV 0.32 μM, Table 4A): 0.977 and 1.068 and 1.001 and 1.032
Relative cell viability Ave. (H1299 cells; CDV 1.6 μM, Table 3A): 1.017
Relative cell viability Ave. (H1299 cells; CDV 1.6 μM, Table 4A): 1.030
Relative cell viability Ave. (H1299 cells; CDV 1.6 μM, Table 4B): 0.990
Relative cell viability (H1299 cells; CDV 1.6 μM, Table 3A): 0.970 and 1.043 and 1.110 and 0.945
Relative cell viability (H1299 cells; CDV 1.6 μM, Table 4A): 0.981 and 1.061 and 1.044 and 1.033
Relative cell viability (H1299 cells; CDV 1.6 μM, Table 4B): 0.984 and 0.996 and 0.983 and 0.997
Relative cell viability Ave. (H1299 cells; CDV 8 μM, Table 3A): 1.010
Relative cell viability Ave. (H1299 cells; CDV 8 μM, Table 4A): 0.989
Relative cell viability Ave. (H1299 cells; CDV 8 μM, Table 4B): 0.925
Relative cell viability (H1299 cells; CDV 8 μM, Table 3A): 0.912 and 1.037 and 1.043 and 1.047
Relative cell viability (H1299 cells; CDV 8 μM, Table 4A): 0.918 and 1.022 and 1.016 and 0.999
Relative cell viability (H1299 cells; CDV 8 μM, Table 4B): 0.913 and 0.935 and 0.928 and 0.923
Relative cell viability Ave. (H1299 cells; CDV 40 μM, Table 3A): 0.923
Relative cell viability Ave. (H1299 cells; CDV 40 μM, Table 4A): 0.695
Relative cell viability Ave. (H1299 cells; CDV 40 μM, Table 4B): 0.600
Relative cell viability (H1299 cells; CDV 40 μM, Table 3A): 1.004 and 0.919 and 0.876 and 0.894
Relative cell viability (H1299 cells; CDV 40 μM, Table 4A): 0.709 and 0.677 and 0.686 and 0.706
Relative cell viability (H1299 cells; CDV 40 μM, Table 4B): 0.588 and 0.574 and 0.628 and 0.609
Relative cell viability Ave. (H1299 cells; CDV 200 μM, Table 3A): 0.398
Relative cell viability Ave. (H1299 cells; CDV 200 μM, Table 4A): 0.199
Relative cell viability Ave. (H1299 cells; CDV 200 μM, Table 4B): 0.136
Relative cell viability (H1299 cells; CDV 200 μM, Table 3A): 0.401 and 0.420 and 0.362 and 0.411
Relative cell viability (H1299 cells; CDV 200 μM, Table 4A): 0.221 and 0.203 and 0.185 and 0.186
Relative cell viability (H1299 cells; CDV 200 μM, Table 4B): 0.135 and 0.128 and 0.145 and 0.134
Relative cell viability Ave. (H1299 cells; CDV 1000 μM, Table 4A): 0.037
Relative cell viability Ave. (H1299 cells; CDV 1000 μM, Table 4B): 0.015
Relative cell viability (H1299 cells; CDV 1000 μM, Table 4A): 0.033 and 0.043 and 0.036 and 0.037
Relative cell viability (H1299 cells; CDV 1000 μM, Table 4B): 0.021 and 0.013 and 0.012 and 0.015
toxicity of CDV itself (H1299 cells; H1299 cells, high concentrations): toxic
CC50 at 7 days [1]: 146 µM
